Entries after “also recorded” stand apart in the source; their conditions may differ.
Tests used:
[1] = test system: gld-1 FBEa RNA; experiment: Electrophoretic mobility shift assay (EMSA), RNA binding; parameters: species or system C. elegans; details: LST-1 B 50 μM
Experimental: A 3′-Cy5-labeled synthetic RNA was ordered from IDT (gld-1 FBEa, 5′-[…]-3′). The FBF-2 proteins were serially diluted 2-fold from the highest concentration of 10 µM in the buffer used for gel filtration (20 mM HEPES pH 7.4, 150 mM NaCl, and 0.5 mM TCEP). 10 µl of the serially diluted protein samples were mixed with 10 µl RNA (10 nM) in a 2× buffer of 10 mM HEPES pH 7.4, 0.01% (v/v) Tween 20, 0.1 mg/ml BSA, 0.1 mg/ml yeast tRNA, and 2 mM DTT. For experiments in the presence of LST-1, LST-1 proteins at constant concentration were preincubated with FBF-2 at 4 °C for 2 h. The LST-1 concentrations were chosen based on their Kd’s for interaction with FBF-2. The final FBF-2 concentrations ranged from 5000 nM to 0.6 nM, and the LST-1 A or B concentrations were constant at 150 μM or 50 μM, respectively. The protein-RNA mixtures were incubated at 4 °C overnight. The samples were resolved on 10% TBE polyacrylamide gels run at constant voltage (100 V) with 1× TBE buffer at room temperature for 35 min. The gels were scanned and visualized with a Typhoon FLA 9500 imager using the Cy5 channel (excitation wavelength 635 nm). Band intensities were quantified with ImageQuant 5.2 (Cytiva). The data were fit with GraphPad Prism (version 9.2.0) using nonlinear regression with a one-site specific binding model. Mean Kd’s and standard error of the mean (SEM) from three or more technical replicates are reported (Supplementary Table 4). Full scan images for the replicates shown in the main figures and gel images for all replicates are included in a source data file.

[2] = test system: gld-1 FBEa RNA; details: LST-1 peptide with FBF-2 RBD (no CT); cited from earlier work
Text: LST-1 is expressed in GSCs in response to signaling from the stem cell niche. The LST-1 protein is largely unstructured (Fig. 1b), including an N-terminal region that is sufficient for self-renewal of GSCs[22]. This LST-1 IDR region harbors two PUF Interacting Motifs (PIMs), LST-1 A and LST-1 B, that interact with FBF-2, each with a KxxL sequence[17],[22]. Crystal structures of FBF-2 bound to LST-1 A or B identify a seven-residue core region, including the KxxL sequence, that binds to FBF-2 with similar peptide backbone structure[17],[18]. The two LST-1 PIMs are biologically redundant for ... || If the FBF-2 CT reduces RNA-binding affinity (Fig. 3b) and competes with LST-1 for binding (Fig. 2c, d), why then does FBF-2 depend on LST-1 to repress RNAs in nematodes? To address this question, we explored RNA-binding affinities of FBF-2 RBD + CT in the presence of either LST-1 A or LST-1 B (Fig. 6; Supplementary Table 3). In contrast to results with FBF-2 RBD alone[17],[18], both LST-1 A and LST-1 B increased the RNA-binding affinity of FBF-2 RBD + CT.

[3] = molecular target: T1, FBF-2 RBD+CT;LST-1 B peptide (Caenorhabditis elegans;Caenorhabditis …, UniProt Q09312;P91820 164-632;67-98, |); experiment: EMSA; 50 uM LST-1 B; EMSA: FBF-2 in 20 mM HEPES pH 7.4, 150 mM NaCl, 0.5 mM TCEP mixed 1:1 with 5 nM final RNA in 10 mM HEPES pH 7.4, 0.01% Tween 20, 0.1 mg/ml BSA, 0.1 mg/ml yeast; details: protein: recombinant;recombinant; tags: none (His6-SUMO removed with Ulp1);none (His6-SUMO removed with Ulp1); copies: 1;1; label: 3'-Cy5
T1 sequence 1: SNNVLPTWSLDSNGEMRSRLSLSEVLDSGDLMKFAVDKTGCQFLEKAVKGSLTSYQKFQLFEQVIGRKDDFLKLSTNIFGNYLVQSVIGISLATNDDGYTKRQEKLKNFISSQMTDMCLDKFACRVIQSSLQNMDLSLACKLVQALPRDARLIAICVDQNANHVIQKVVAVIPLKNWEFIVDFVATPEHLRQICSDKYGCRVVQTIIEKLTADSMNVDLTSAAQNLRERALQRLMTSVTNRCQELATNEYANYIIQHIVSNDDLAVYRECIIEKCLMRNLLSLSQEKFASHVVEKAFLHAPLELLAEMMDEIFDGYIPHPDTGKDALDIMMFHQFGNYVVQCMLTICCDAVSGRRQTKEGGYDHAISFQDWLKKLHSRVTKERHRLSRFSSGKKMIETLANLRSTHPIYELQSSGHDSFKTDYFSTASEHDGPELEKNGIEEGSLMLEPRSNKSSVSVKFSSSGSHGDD
T1 sequence 2: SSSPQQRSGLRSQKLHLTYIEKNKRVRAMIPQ

[4] = molecular target: T2, FBF-2 RBD+CT L610A;LST-1 B peptide (Caenorhabditis elegans;Caenorhabditis …, UniProt Q09312;P91820 164-632;67-98, L610A|); experiment: as above; details: protein: recombinant;recombinant; tags: none (His6-SUMO removed with Ulp1);none (His6-SUMO removed with Ulp1); copies: 1;1; label: 3'-Cy5
T2 sequence 1: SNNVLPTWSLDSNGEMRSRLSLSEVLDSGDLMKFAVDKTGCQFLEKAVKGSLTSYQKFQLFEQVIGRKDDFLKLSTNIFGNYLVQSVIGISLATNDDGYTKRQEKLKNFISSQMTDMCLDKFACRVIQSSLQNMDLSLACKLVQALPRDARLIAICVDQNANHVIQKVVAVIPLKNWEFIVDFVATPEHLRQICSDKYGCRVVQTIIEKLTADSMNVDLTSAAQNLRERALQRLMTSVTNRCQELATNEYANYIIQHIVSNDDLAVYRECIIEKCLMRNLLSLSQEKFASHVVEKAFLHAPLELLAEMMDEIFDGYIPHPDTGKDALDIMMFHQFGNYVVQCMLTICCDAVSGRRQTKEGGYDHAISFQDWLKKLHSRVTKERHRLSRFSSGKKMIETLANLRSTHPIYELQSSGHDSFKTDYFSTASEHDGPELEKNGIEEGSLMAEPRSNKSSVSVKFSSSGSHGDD
T2 sequence 2: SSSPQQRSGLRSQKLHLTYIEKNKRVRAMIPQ

## LST-1 B: LST-1 B peptide, residues 67–98, expressed in E. coli (SSSPQQRSGLRSQKLHLTYIEKNKRVRAMIPQ; left off: His6-SUMO, N-terminal, cleaved)
[1]; of FBF-2 RBD + CT L610A
  effect on RNA-binding affinity: little to no effect
[1]; of FBF-2 RBD + CT Y479A
  effect on RNA-binding affinity: no effect
[2]
  effect on RNA-binding affinity of FBF-2 RBD: decreased the RNA-binding affinity; also recorded: decreases RNA-binding affinity

B1: gld-1 FBEa RNA (EMSA) (ssRNA)
RNA: AUCAUGUGCCAUAC
[3]
  Kd: 68 ± 21 nM
[4]
  Kd: 82 ± 18 nM

Source: publication PMC10641069, “Intra- and inter-molecular regulation by intrinsically-disordered regions governs PUF protein RNA binding” (Nature Communications, 2023)
